Results: patent publication US11802120B2, “Fused cyclic urea derivatives as CRHR2 antagonist” (RaQualia Pharma Inc., priority 2018, dated 2023)
pIC50: −log10 of the molar value.

Biological target: T1, human CRHR2-alpha (Homo sapiens, UniProt Q13324)
T1 sequence (Q13324 1-411): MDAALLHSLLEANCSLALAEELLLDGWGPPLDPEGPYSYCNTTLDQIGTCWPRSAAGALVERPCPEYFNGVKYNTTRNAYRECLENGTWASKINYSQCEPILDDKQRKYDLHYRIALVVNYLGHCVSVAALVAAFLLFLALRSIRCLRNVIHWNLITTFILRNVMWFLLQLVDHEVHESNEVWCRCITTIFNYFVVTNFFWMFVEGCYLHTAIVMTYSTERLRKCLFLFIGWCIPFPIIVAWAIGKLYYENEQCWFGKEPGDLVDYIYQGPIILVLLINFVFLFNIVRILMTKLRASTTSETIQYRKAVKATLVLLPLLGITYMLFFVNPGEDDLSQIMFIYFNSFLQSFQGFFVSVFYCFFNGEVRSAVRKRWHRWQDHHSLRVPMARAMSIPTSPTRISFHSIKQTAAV
Assay: cAMP functional assay for human CRHR2 (LANCE Ultra cAMP, TR-FRET)
Assay type: cell-based
Settings: CHO-K1 cells expressing human CRHR2-alpha, agonist human urocortin2 at EC80, cAMP; read-out: IC50 against CRHR2
Outline: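 CHO-K1 stable lines; 4,000 cells/well; compound 30 min, 25° C; EC80 agonist (human urocortin2 → CRHR2, CRF → CRHR1) 30 min, 25° C; buffer HBSS/0.1% BSA/0.5 mM IBMX/5 mM Hepes pH 7.4; Eu-cAMP tracer + ULight antibody 60 min; TR-FRET read; IC50 from % inhibition curves.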

Row | SMILES | pIC50
1 | Cc1ncc(Cl)cc1C(=O)N[C@H]1CC[C@H](Cn2c(=O)n(-c3cccc(-c4cncn4C)c3)c3ccccc32)CC1 [Example 517, 5-chloro-2-methyl-N-((1r,4r)-4-((3-(3-(1-methyl-1H-imidazol-5-yl)phenyl)-2-oxo-2,3-dihydro-1H-benzo[d]imidazol-1-yl)methyl)cyclohexyl)nicotinamide] | > 6.52
2 | Cc1c[nH]c2ncc(-n3c(=O)n(C[C@H]4CC[C@H](NC(=O)c5cc(Cl)cnc5C(F)F)CC4)c4ncccc43)cc12 [Example 578, 5-chloro-2-(difluoromethyl)-N-((1r,4r)-4-((1-(3-methyl-1H-pyrrolo[2,3-b]pyridin-5-yl)-2-oxo-1H-imidazo[4,5-b]pyridin-3(2H)-yl)methyl)cyclohexyl)nicotinamide] | > 6.52
3 | O=C(Cn1c(=O)n(C[C@H]2CC[C@H](NC(=O)c3cc(Cl)ccc3C(F)(F)F)CC2)c2ccccc21)c1ccccc1 [Example 286, 5-chloro-N-((1r,4r)-4-((2-oxo-3-(2-oxo-2-phenylethyl)-2,3-dihydro-1H-benzo[d]imidazol-1-yl)methyl)cyclohexyl)-2-(trifluoromethyl)benzamide] | > 6.52
4 | Cc1cn(CCO)c2ncc(-n3c(=O)n(C[C@H]4CC[C@H](NC(=O)c5cc(Cl)cnc5C(F)F)CC4)c4ccccc43)cc12 [Example 731, 5-chloro-2-(difluoromethyl)-N-((1r,4r)-4-((3-(1-(2-hydroxyethyl)-3-methyl-1H-pyrrolo[2,3-b]pyridin-5-yl)-2-oxo-2,3-dihydro-1H-benzo[d]imidazol-1-yl)methyl)cyclohexyl)nicotinamide] | > 6.52
5 | O=C(N[C@H]1CC[C@H](Cn2c(=O)n(-c3ccc(NC4CC4)nc3)c3ccccc32)CC1)c1cc(Cl)cnc1C(F)F [Example 543, 5-chloro-N-((1r,4r)-4-((3-(6-(cyclopropylamino)pyridin-3-yl)-2-oxo-2,3-dihydro-1H-benzo[d]imidazol-1-yl)methyl)cyclohexyl)-2-(difluoro-methyl)nicotinamide] | > 6.52
6 | COc1ccc(Cl)c(-n2c(=O)n(C[C@H]3CC[C@H](NC(=O)c4cc(Cl)cnc4C(F)F)CC3)c3cnccc32)c1 [Example 631, 5-chloro-N-((1r,4r)-4-((1-(2-chloro-5-methoxyphenyl)-2-oxo-1H-imidazo[4,5-c]pyridin-3(2H)-yl)methyl)cyclohexyl)-2-(difluoromethyl) nicotinamide] | > 6.52
7 | Cc1ncc(Cl)cc1C(=O)N[C@H]1CC[C@H](Cn2c(=O)n(-c3ccc(OC(F)F)nc3)c3ccccc32)CC1 [Example 97, 5-chloro-N-((1r,4r)-4-((3-(6-(difluoromethoxy)pyridin-3-yl)-2-oxo-2,3-dihydro-1H-benzo[d]imidazol-1-yl)methyl)cyclohexyl)-2-methylnicotinamide] | > 6.52
8 | Cc1ccc(-n2c(=O)n(C[C@H]3CC[C@H](NC(=O)c4cc(Cl)ccc4Cl)CC3)c3ccccc32)cn1 [Example 269, 2,5-dichloro-N-((1r,4r)-4-((3-(6-methylpyridin-3-yl)-2-oxo-2,3-dihydro-1H-benzo[d]imidazol-1-yl)methyl)cyclohexyl)benzamide] | > 6.52
9 | O=C(N[C@H]1CC[C@H](Cn2c(=O)n(-c3cnc(OCCO)cn3)c3ccccc32)CC1)c1cc(Cl)cnc1C(F)F [Example 563, 5-chloro-2-(difluoromethyl)-N-((1r,4r)-4-((3-(5-(2-hydroxyethoxy)pyrazin-2-yl)-2-oxo-2,3-dihydro-1H-benzo[d]imidazol-1-yl)methyl)cyclohexyl)nicotinamide] | > 6.52
10 | Cc1ncc(Cl)cc1C(=O)N[C@H]1CC[C@H](Cn2c(=O)n(-c3cnc4c(c3)OCC(=O)N4)c3ccccc32)CC1 [Example 224, 5-chloro-2-methyl-N-((1r,4r)-4-((2-oxo-3-(3-oxo-3,4-dihydro-2H-pyrido[3,2-b][1,4]oxazin-7-yl)-2,3-dihydro-1H-benzo[d]imidazol-1-yl)methyl)cyclohexyl)nicotinamide] | > 6.52
11 | CNC(=O)c1ccc(-n2c(=O)n(C[C@H]3CC[C@H](NC(=O)c4cc(Cl)cnc4C)CC3)c3cccc(C)c32)cn1 [Example 192, 5-(3-(((1r,4r)-4-(5-chloro-2-methylnicotinamido)cyclo-hexyl)methyl)-7-methyl-2-oxo-2,3-dihydro-1H-benzo [d]imidazol-1-yl)-N-methylpicolinamide] | > 6.52
12 | Cc1ncc(Cl)cc1C(=O)N[C@H]1CC[C@H](Cn2c(=O)n(C3Cc4ccc(Br)cc4C3)c3ccncc32)CC1 (stereo partly drawn) [Example 211, N-((1r,4r)-4-((1-(5-bromo-2,3-dihydro-1H-inden-2-yl)-2-oxo-1H-imidazo[4,5-c]pyridin-3(2H)-yl)methyl)cyclohexyl)-5-chloro-2-methylnicotinamide] | > 6.52
13 | Cc1ncc(Cl)cc1C(=O)N[C@H]1CC[C@H](Cn2c(=O)n(-c3ccc(N4CCCC4=O)nc3)c3ccccc32)CC1 [Example 111, 5-chloro-2-methyl-N-((1r,4r)-4-((2-oxo-3-(6-(2-oxopyrrolidin-1-yl)pyridin-3-yl)-2,3-dihydro-1H-benzo[d]imidazol-1-yl)methyl)cyclohexyl)nicotinamide] | > 6.52
14 | CNc1cncc(-n2c(=O)n(C[C@H]3CC[C@H](NC(=O)c4cc(Cl)cnc4C)CC3)c3ccccc32)c1 [Example 487, 5-chloro-2-methyl-N-((1r,4r)-4-((3-(5-(methylamino)pyridin-3-yl)-2-oxo-2,3-dihydro-1H-benzo[d]imidazol-1-yl)methyl)cyclohexyl)nicotinamide] | > 6.52
15 | Cc1ncc(Cl)cc1C(=O)N[C@H]1CC[C@H](Cn2c(=O)n(-c3ccc(-c4cccnc4)nc3)c3ccccc32)CC1 [Example 201, N-((1r,4r)-4-((3-([2,3′-bipyridin]-5-yl)-2-oxo-2,3-dihydro-1H-benzo[d]imidazol-1-yl)methyl)cyclohexyl)-5-chloro-2-methylnicotinamide] | > 6.52
16 | Cc1ncc(Cl)cc1C(=O)N[C@H]1CC[C@H](Cn2c(=O)n(-c3ccc(-n4ccnn4)cc3)c3ccccc32)CC1 [Example 470, N-((1r,4r)-4-((3-(4-(1H-1,2,3-triazol-1-yl)phenyl)-2-oxo-2,3-dihydro-1H-benzo[d]imidazol-1-yl)methyl)cyclohexyl)-5-chloro-2-methylnicotinamide] | > 6.52
17 | Cc1ncc(Cl)cc1C(=O)N[C@H]1CC[C@H](Cn2c(=O)n(-c3ccc(OCC4CC4)nc3)c3ccccc32)CC1 [Example 112, 5-chloro-N-(4-((3-(6-(cyclopropylmethoxy)pyridin-3-yl)-2-oxo-2,3-dihydro-1H-benzo [d]imidazol-1-yl)methyl)cyclohexyl)-2-methylnicotinamide] | > 6.52
18 | CNC(=O)c1ccc(-n2c(=O)n(C[C@H]3CC[C@H](NC(=O)c4cc(Cl)cnc4Cl)CC3)c3ccccc32)cn1 [Example 542, 5-(3-(((1r,4r)-4-(2,5-dichloronicotinamido)cyclohexyl)methyl)-2-oxo-2,3-dihydro-1H-benzo[d]imidazol-1-yl)-N-methylpicolinamide] | > 6.52
19 | C=Cc1ccc(-n2c(=O)n(C[C@H]3CC[C@H](NC(=O)c4cc(Cl)cnc4C)CC3)c3ccccc32)cn1 [Example 70, 5-chloro-2-methyl-N-((1r,4r)-4-((2-oxo-3-(6-vinylpyridin-3-yl)-2,3-dihydro-1H-benzo[d]imidazol-1-yl)methyl)cyclohexyl)nicotinamide] | > 6.52
20 | Cc1ncc(Cl)cc1C(=O)N[C@H]1CC[C@H](Cn2c(=O)n(-c3ccncc3C#N)c3ccccc32)CC1 [Example 249, 5-chloro-N-((1r,4r)-4-((3-(3-cyanopyridin-4-yl)-2-oxo-2,3-dihydro-1H-benzo[d]imidazol-1-yl)methyl)cyclohexyl)-2-methylnicotinamide] | > 6.52
21 | Cc1ncc(Cl)cc1C(=O)N[C@H]1CC[C@H](Cn2c(=O)n(-c3cnc4ccccc4c3)c3ccccc32)CC1 [Example 346, 5-chloro-2-methyl-N-((1r,4r)-4-((2-oxo-3-(quinolin-3-yl)-2,3-dihydro-1H-benzo[d]imidazol-1-yl)methyl)cyclo-hexyl)nicotinamide] | > 6.52
22 | CNc1ccc(-n2c(=O)n(C[C@H]3CC[C@H](NC(=O)c4cc(Cl)cnc4C(F)F)CC3)c3c(F)cccc32)cn1 [Example 672, 5-chloro-2-(difluoromethyl)-N-((1r,4r)-4-((7-fluoro-3-(6-(methylamino)pyridin-3-yl)-2-oxo-2,3-dihydro-1H-benzo [d]imidazol-1-yl)methyl)cyclo-hexyl)nicotinamide] | > 6.52
23 | Cc1ncc(Cl)cc1C(=O)N[C@H]1CC[C@H](Cn2c(=O)n(-c3ccc(-c4cn[nH]c4)nc3)c3ccccc32)CC1 [Example 203, N-((1r,4r)-4-((3-(6-(1H-pyrazol-4-yl)pyridin-3-yl)-2-oxo-2,3-dihydro-1H-benzo[d]imidazol-1-yl)methyl)cyclohexyl)-5-chloro-2-methylnicotinamide] | > 6.52
24 | Cc1ncc(Cl)cc1C(=O)N[C@H]1CC[C@H](Cn2c(=O)n(-c3cc(Br)ccc3C#N)c3ccccc32)CC1 [Example 307, N-((1r,4r)-4-((3-(5-bromo-2-cyanophenyl)-2-oxo-2,3-dihydro-1H-benzo[d]imidazol-1-yl)methyl)cyclohexyl)-5-chloro-2-methylnicotinamide] | > 6.52
